In brackets after ≈: the same amount, converted by molar mass. Where a name gives a salt, the structure may show the parent alone. Values belong to the molecule of their own block, whether it stands above or below them.
Assays:
[1] = tested on: Candida lipase, Genzyme (Enzyme G); assay: Asymmetric hydrolysis in a multiphasic bioreactor with Enzyme G
Method: 3.0 grams of the lipase were dissolved in 500 mls of distilled water; this solution was recirculated in an ultrafiltration mode from the shell into the lumen and back to the reservoir for 30 minutes. The ultrafiltrate was then collected until the reservoir was empty, and methyl isobutyl ketone (MIBK) was then pumped into the shell and recirculated at 400-450 ml/min with a 5-7 psig shell pressure to remove any remaining enzyme solution from the shell.
A reactor was prepared as described in Example 6.2.2.5 (naproxen) using essentially the same mode of loading the enzyme, 3.0 grams of Candida lipase (Enzyme G, from Genzyme Corporation) were ultrafiltered from the shell into the lumen. […] The module was then drained.
No organic solvent was required as the substrate is already a water-immiscible liquid. Phosphate buffer was immediately pumped into the lumen and recirculated at 400-450 ml/min.
The reaction was monitored by following acid production based on hydroxide titration data. […] The aqueous buffer was replaced after 76 minutes and acidified to pH 2.0 with concentrated HCl in the presence of about 200 ml of chloroform.

[2] = Solubility of esters, absorbance of saturated solutions at 262 nm; type: physicochemical; details: for Solubility: saturated solution, pH 7 (50 mM phosphate buffer), room temperature; for water solubility: in water
[3] = tested on: Protease XXIII from Aspergillus oryzae (Enzyme A); assay: Homogeneous aqueous enzymatic resolution (ester hydrolysis) with Enzyme A; type: biochemical; details: 100 mg enzyme A
Method: No further purification was performed.

[4] = tested on: protease Prozyme 6 (Enzyme F); assay: Homogeneous aqueous enzymatic resolution with Enzyme F; type: biochemical, Aspergillus oryzae; details: for % e.e.: naproxen acid product (R), 100 mg Prozyme 6, pH 7.0, 25 C
Method: The enzymatic reaction mixtures were capped and briefly shaken until all the substrate had dissolved, and the enzyme had completely dissolved or dispersed. […] Evaporation of the ether left a white solid. The result is summarized below in Table 11 Rotations were measured at c=1 in CHCl3.
The enzymatic reaction mixtures were capped and briefly shaken until all the substrate had dissolved, and the enzyme had completely dissolved or dispersed. […] Evaporation of the ether left a white solid. Rotations were measured at c=1 in CHCl3.
The reaction was started by adding 100 mg of the protease (F) from the fungus Aspergillus oryzae (from Amano Enzyme Corporation, Prozyme 6, 60,000 units per mg of solid).
After 20 hours at room temperature, the solution was acidified to pH 2 and extracted with 3 volumes of diethyl ether. The aqueous phase was saved for subsequent workup. The ether phase was washed with two volumes of distilled water and then one volume of saturated sodium chloride, and then it was dried over MgSO4 and subsequently evaporated to dryness. The resolved ibuprofen product recovered was 930 mg of white powder, indicating 45% conversion of racemic ester to acid. The optical rotation was -0.580° (measured at c=1 in ethanol), indicating the R isomer of ibuprofen.
35 mg of protease Enzyme F, as the commercial preparation Prozyme 6, were added to the aqueous solution. The reaction flask was capped, and briefly shaken until all the enzyme had dissolved or dispersed. […] The resulting mixture was diluted with one volume of water and was extracted with diethyl ether (2 times 200 ml). The ether layers were combined and backwashed with water (2 times 200 ml), saturated NaCl solution (200 ml), and then dried over MgSO4.
In this control run, a 0.5M ester solution of (1) was prepared in 325 ml of 0.1M sodium phosphate buffer (pH 7.0). The reaction was started by adding 3 gm of the above enzyme (F). The pH was controlled at 7.0 with 8.22M sodium hydroxide. After 6.49 hours at 30° C., 6.63 ml of hydroxide were added, indicating 37.7% conversion. The reaction was allowed to continue overnight and, after 23.1 hours, a total of 7.2 ml of sodium hydroxide were added, indicating 40.9% conversion.

[5] = biological target: T1, Protease VIII "Subtilopeptidase A" (Enzyme B) (Bacillus licheniformis, UniProt P00780); assay: Rates of hydrolysis of the two enantiomers, pH stat, Enzyme B; type: biochemical; details: for Rate (hydrolysis): 50 mM ester, 50 mM Na3PO4 buffer pH 7.6
T1 sequence (P00780 106-379): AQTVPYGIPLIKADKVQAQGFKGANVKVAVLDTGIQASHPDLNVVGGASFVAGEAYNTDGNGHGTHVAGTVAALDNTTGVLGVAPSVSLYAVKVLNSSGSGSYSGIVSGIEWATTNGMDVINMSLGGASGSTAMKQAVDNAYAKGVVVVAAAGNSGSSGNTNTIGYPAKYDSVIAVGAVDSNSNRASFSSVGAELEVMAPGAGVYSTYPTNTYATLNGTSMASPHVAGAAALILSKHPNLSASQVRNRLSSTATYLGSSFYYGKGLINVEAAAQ
Method: (§1) 15 ml of a solution containing one enantiomer of the ester at a concentration of 50 mM, and Na3 PO4 buffer at 50 mM and pH 7.6 was observed using a pH stat device. 0.1 ml of a 50 mg/ml solution of enzyme B, made up from the commercially available preparation in 50 mM Na3 PO4 buffer at pH 7.6, were added. Rates of hydrolysis of both enantiomers of the ester compound were determined for the enzyme. The ratio of the rates of hydrolysis for the two enantiomers for the two enantiomers with respect to the enzyme indicate the stereospecificity of that enzyme's hydrolytic action on the racemic mixture of the ester. No evidence for the hydrolysis of the acetylthio ester portion of the substrate molecule was found.

[6] = tested on: Protease XIV from Streptomyces griseus (Enzyme I); assay: Rates of hydrolysis of the two enantiomers, pH stat, Enzyme I; type: biochemical; details: for Rate (hydrolysis): 50 mM ester, pH 7.6
Method: as §1, with “solution of protease enzyme I,” for “solution of enzyme B,”, “protease enzyme I, made up” for “of enzyme B, made up”, “for the protease enzyme. The” for “for the enzyme. The”

[7] = tested on: Protease XXIII from Aspergillus oryzae (Enzyme A); assay: Rates of hydrolysis of the two enantiomers, pH stat, Enzyme A; type: biochemical; details: for Rate (hydrolysis): 50 mM ester, pH 7.6
Method: 15 ml of a solution containing one enantiomer of the ester at a concentration of 50 mM, and Na3 PO4 buffer at 50 mM and pH 7.6 was observed using a pH stat device. 0.1 ml of a 50 mg/ml solution of enzyme A, made up from
as §1, with “the” for “15 ml of a solution containing one enantiomer of the ester at a concentration of 50 mM, and Na3 PO4 buffer at 50 mM and pH 7.6 was observed using a pH stat device. 0.1 ml of a 50 mg/ml solution of enzyme B, made up from the”

[8] = biological target: T2, Protease XXIV bacterial protease (Enzyme J) (Bacillus licheniformis, UniProt P00780); assay: Rates of hydrolysis of the two enantiomers, pH stat, Enzyme J; type: biochemical; details: for Rate (hydrolysis): 50 mM ester, pH 7.6
T2 sequence (P00780 106-379): T1 sequence (P00780 106-379)
Method: as §1, with “Enzyme J,” for “enzyme B,”

[9] = biological target: T3, Protease XXVII "Nagarse" (Enzyme D) (Bacillus amyloliquefaciens, UniProt P00782); assay: Rates of hydrolysis of the two enantiomers, pH stat, Enzyme D; type: biochemical; details: for Rate (hydrolysis): 50 mM ester, pH 7.6
T3 construct: purchased Protease XXVII
T3 sequence (P00782 108-382): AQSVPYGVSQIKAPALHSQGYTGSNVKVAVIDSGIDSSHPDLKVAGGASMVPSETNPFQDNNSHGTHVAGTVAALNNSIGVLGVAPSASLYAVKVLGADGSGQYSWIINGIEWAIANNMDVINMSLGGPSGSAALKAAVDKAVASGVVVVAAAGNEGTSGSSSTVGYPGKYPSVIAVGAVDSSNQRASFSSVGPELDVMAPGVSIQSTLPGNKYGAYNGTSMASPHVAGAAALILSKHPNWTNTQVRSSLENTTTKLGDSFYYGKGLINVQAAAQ
Method: as §1, with “D,” for “B,”, “thioacetyl” for “acetylthio”

[10] = tested on: Candida lipase, Sigma L-1754 (Enzyme H); assay: Asymmetric hydrolysis in a multiphasic bioreactor with Enzyme H
Method: The enzyme solution was recirculated from the shell side to the lumen side and back to the solution reservoir in an ultra-filtration mode. […] The procedure was completed in one hour.
The recirculation rate was 400 ml/min and the average pressure on the shell compartment was kept at 6.5 psi by adjusting a throttling valve at the shell side exit. On the lumen side 1 liter of 0.05M K2 PO4 was recirculated at a rate of 400 ml/min. The pH of the aqueous reservoir was kept at 7.0 by addition of 1M NaOH. The reactor was run continuously for 6.8 days.
The reaction progress and rate were monitored by following the caustic consumption.

- conversion (enzymatic hydrolysis) ([3]; 2.0 gm ester in 400 ml 50 mM sodium phosphate pH 7.5, 25 degrees, 16 hours): 18%
- enantiomeric excess of R isomer of naproxen (acid product) ([3]; pH 7.5, 25 degrees, 16 hours): 61.2%
- enantiomeric excess of S isomer of Naproxen (from unconverted ester hydrolysed at pH 12) ([3]; pH 7.5, 25 degrees, 16 hours): 45.5%
Structure (SMILES): COc1ccc2cc(C(C)C(=O)OCS(=O)(=O)O)ccc2c1 (centres unmarked) [Compound 9, Sodium Salt of Sulfomethyl Ester of 2-(6-Methoxy-2-naphthyl)propanoic Acid]

- Solubility [2]: 2180 mM
- % e.e. ([3]; acid product (R), pH 7.0, 20 hours, 20-22 C): > 99%
Structure (SMILES): CC(C)Cc1ccc(C(C)C(=O)OCC[N+](C)(C)C)cc1 (centres unmarked) [Compound 10, Iodide Salt of 2-(N,N,N-Trimethylammonium)ethyl Ester of 2-(4-Isobutylphenyl)propanoic Acid]

- Solubility [2]: 1610 mM
- % CONVERSION ([4]; 100 mg Prozyme 6, 10 mmol ester in 100 ml 0.2M phosphate buffer pH 7.0, 25 C, 18 hours): 34.0%
- % e.e. ([4]; 18 hours): 21.6%
Structure (SMILES): COc1ccc2cc(C(C)C(=O)OCCC[N+](C)(C)C)ccc2c1 (centres unmarked) [Compound 12, Methyl Sulfate Salt of 3-(N,N,N-Trimethylammonium)propyl Ester of 2-(6-Methoxy-2-naphthyl)propanoic Acid]

- reaction completion ([4]; 35 mg Prozyme 6, 10 mmol ester in 100 ml 0.2M sodium phosphate pH 7.0, 30 C, 1 hour): 22.5%
Structure (SMILES): CC(Oc1ccc(Cl)cc1)C(=O)OCS(=O)(=O)O (centres unmarked) [Compound 17, Sodium Salt of the Sulfomethyl Ester of 2-(4-Chlorophenoxy)propanoic Acid]

- water solubility [2]: roughly 0.4 mM
- Solubility [2]: 0.4 mM (≈ 115 µg/mL)
Structure (SMILES): CC(C)Cc1ccc(C(C)C(=O)OCC(F)(F)F)cc1 (centres unmarked) [Compound 19, 2,2,2-Trifluoroethyl Ester of 2-(4-Isobutylphenyl)propanoic Acid]
- average hydrolytic rate ([1]; first 60 minutes, neat liquid ester, pH 7.7, 3.0 grams lipase): 160 µmol/min
- conversion to acid ([1]; over the next 76 hours): about 9.8%
- average hydrolysis rate ([1]; over the next 76 hours, by titrimetry): 21 µmol/min

- water solubility [2]: approximately 1.2 mM
- Solubility [2]: 1.2 mM (≈ 265 µg/mL)
Structure (SMILES): CCCCCCCCOC(=O)C(C)Cl (centres unmarked) [Compound 20, Octyl Ester of 2-Chloropropanoic Acid]
- initial ester hydrolyzed ([10]; at termination, 6.8 days): 41%
- rate of ester hydrolysis ([10]; at the beginning of the experiment, pH 7.0, 30 grams lipase): 186 µmol/min
- rate of ester hydrolysis ([10]; at the end (6.8 days)): 25 µmol/min

More lines, now with the values behind:

Structure (SMILES): COC(=O)C(C)c1ccc2cc(OC)ccc2c1 (racemic) [Compound 18, Methyl Ester of 2-(6-Methoxy-2-naphthyl)propanoic Acid]
- average rate (hydrolysis) ([1]; first 45 minutes, 0.75M ester in MIBK, pH 8.50, 3.0 grams lipase): 35 µmol/h

Structure (SMILES): CC(C)Cc1ccc(C(C)C(=O)OCCN(C)C)cc1 (centres unmarked) [2-(N,N-dimethylamino)ethyl ester of ibuprofen, reference compound]
- Solubility [2]: 10 mM (≈ 2770 µg/mL)

Structure (SMILES): COc1ccc2cc(C(C)C(=O)OCC[N+](C)(C)C)ccc2c1 (centres unmarked) [Compound 11, Methyl Sulfate Salt of 2-(N,N,N-Trimethylammonium)ethyl Ester of 2-(6-Methoxy-2-naphthyl)propanoic Acid]
- % e.e. ([4]; 18 hours): 34.0%

Structure (SMILES): CC(=O)SC[C@@H](C)C(=O)OCS(=O)(=O)O [Compound 14, Potassium Salt of the Sulfomethyl Ester of D-(-)-S-3-Acetylthio-2-methylpropanoic Acid]
- Rate (hydrolysis) [5]: 65 umols/hr/mg
- Rate (hydrolysis) [6]: 63 umols/hr/mg
- Rate (hydrolysis) [7]: 5.3 umols/hr/mg
- Rate (hydrolysis) [8]: 61 umols/hr/mg
- Rate (hydrolysis) [9]: 27 umols/hr/mg

Structure (SMILES): CC(=O)SC[C@H](C)C(=O)OCS(=O)(=O)O [Compound 15, Potassium Salt of the Sulfomethyl Ester of L-(+)-S-3-Acetylthio-2-methylpropanoic Acid]
- Rate Ratio L/D [5]: 2.1
- Rate (hydrolysis) [5]: 135 umols/hr/mg
- Rate Ratio L/D [6]: 1.7
- Rate (hydrolysis) [6]: 105 umols/hr/mg
- Rate Ratio L/D [7]: 2.3
- Rate (hydrolysis) [7]: 12 umols/hr/mg
- Rate Ratio L/D [8]: 1.1
- Rate (hydrolysis) [8]: 65 umols/hr/mg
- Rate Ratio L/D [9]: 1.1
- Rate (hydrolysis) [9]: 29 umols/hr/mg

Structure (SMILES): COCCOC(=O)C(C)c1ccc(CC(C)C)cc1 (centres unmarked) [Methoxyethyl ester of ibuprofen, reference compound]
- Solubility [2]: 0.18 mM (≈ 47.6 µg/mL)
